Residue numbers refer to the chain shown, from its start. Like-named read-outs stand apart in the source and are kept apart here.

Common to all, as to assay: URAT1 uric acid transport activity assay
Format in all cases: cell-based

The target in experiment [1] is T1, r-M354T rURAT1 point mutant (Rattus norvegicus, UniProt Q3ZAV1, M354T).
T1 construct: expressed in transfected cells; host or cells: HEK-293T
T1 sequence (Q3ZAV1 1-553 M354T): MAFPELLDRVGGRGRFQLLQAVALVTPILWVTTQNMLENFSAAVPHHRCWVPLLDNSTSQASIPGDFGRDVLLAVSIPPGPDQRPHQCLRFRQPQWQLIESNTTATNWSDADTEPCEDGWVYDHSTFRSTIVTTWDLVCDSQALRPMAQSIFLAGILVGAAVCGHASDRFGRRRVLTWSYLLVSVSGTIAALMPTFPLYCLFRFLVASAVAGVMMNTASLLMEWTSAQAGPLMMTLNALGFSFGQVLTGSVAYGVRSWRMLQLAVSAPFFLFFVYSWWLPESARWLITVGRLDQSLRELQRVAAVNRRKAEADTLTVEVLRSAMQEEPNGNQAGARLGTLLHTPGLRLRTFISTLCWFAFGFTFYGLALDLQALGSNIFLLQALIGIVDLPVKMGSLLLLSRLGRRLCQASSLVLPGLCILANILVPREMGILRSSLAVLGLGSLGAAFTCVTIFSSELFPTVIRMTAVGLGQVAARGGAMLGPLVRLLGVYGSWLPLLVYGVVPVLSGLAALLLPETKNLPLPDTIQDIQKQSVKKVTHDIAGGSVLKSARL
The gist of the method:
(§1)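 Readout: 14C-uric acid uptake (100 μM, 10 min) in cells transiently transfected one day earlier with mutant rURAT1. Serially diluted inhibitors were added 5 min before substrate. Triplicate points, four-parameter logistic fit for IC50.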

Experiment [2] deals with T2, r-V474M rURAT1 point mutant (Rattus norvegicus, UniProt Q3ZAV1, V474M).
T2 construct: expressed in transfected cells; host or cells: HEK-293T
T2 sequence (Q3ZAV1 1-553 V474M): T1 sequence (Q3ZAV1 1-553 M354T) with T354M, V474M
The gist of the method:
as §1

For experiment [3], the target named is T3, r-N35S/M481I rURAT1 double point mutant (Rattus norvegicus, UniProt Q3ZAV1, M481I/N35S).
T3 construct: hURAT1 and rURAT1 are 553 amino acid proteins with 12 transmembrane segments; expressed in transfected cells; host or cells: HEK-293T
T3 sequence (Q3ZAV1 1-553 N35S/M481I): T1 sequence (Q3ZAV1 1-553 M354T) with N35S, T354M, M481I
In outline:
as §1

Regarding `CCc1oc2ccccc2c1C(=O)c1cc(Br)c(O)c(Br)c1` [benzbromarone], the IC50 (in general, the concentration that inhibits the measured activity by half) amounted to 18 ± 1.7 µM in experiment [1], 17 ± 2.2 µM in experiment [2] and 9 ± 1.5 µM in experiment [3].
With `O=C(O)CSc1nnc(Br)n1-c1ccc(C2CC2)c2ccccc12` [lesinurad, 2-((5-bromo-4-(4-cyclopropylnaphthalen-1-yl)-4H-1,2,4-triazol-3-yl)thio)acetic acid], the IC50 in experiment [1] (r-M354T, MES pH 5.5, 100 μM 14C-uric acid, read-out: IC50 (uric acid transport)) is 56 ± 4.9 µM; in experiment [2] (r-V474M, MES pH 5.5, 100 μM 14C-uric acid, read-out: IC50 (uric acid transport)) it was 84 ± 3.2 µM; in experiment [3] (r-N35S/M481I, MES pH 5.5, 100 μM 14C-uric acid, read-out: IC50 (uric acid transport)), 29 ± 1.2 µM.
As for `O=C1C(CC[S+]([O-])c2ccccc2)C(=O)N(c2ccccc2)N1c1ccccc1` (stereo not drawn) [sulfinpyrazone], the IC50 in experiment [1] (r-M354T, HEPES pH 7.3, 100 μM 14C-uric acid, read-out: IC50 (uric acid transport)) is 304 ± 38 µM; in experiment [2] (r-V474M, HEPES pH 7.3, 100 μM 14C-uric acid, read-out: IC50 (uric acid transport)), 732 ± 102 µM; in experiment [3] (r-N35S/M481I, HEPES pH 7.3, 100 μM 14C-uric acid, read-out: IC50 (uric acid transport)) it was 176 ± 44 µM.
